In patent publication US20240148821A1, “PHARMACEUTICAL USE OF CYCLIC PEPTIDE COMPOUND” (CHUGAI SEIYAKU KABUSHIKI KAISHA, priority 2021, published 2024):
Numbered stars: 1 amine (or outer) side, 2 acyl side, 3 side chain; on linkers, the order of the positions; unused ones are H or OH. Bridge positions count the residues as written; N and C are the ends. Square brackets hold non-standard residues; d marks the D form. Peptide text beside a SMILES is read from it. * marks the point of attachment. hPhe(3,5-F2-4-CF3) = N[C@@H](CCc1cc(F)c(C(F)(F)F)c(F)c1)C(=O)O; hPhe(3-Cl-4-CF3) = N[C@@H](CCc1ccc(C(F)(F)F)c(Cl)c1)C(=O)O; X115 = O=C([C@H](CCc1ccc(S(F)(F)(F)(F)F)cc1)N[*:1])[*:2]; hPhe(3-F,4-CF3) = N[C@@H](CCc1ccc(C(F)(F)F)c(F)c1)C(=O)O; NEtPhe(4-Cl) = CCN[C@@H](Cc1ccc(Cl)cc1)C(=O)O; NMePhe(2-CN) = CN[C@@H](Cc1ccccc1C#N)C(=O)O; NMePhe(4-Me) = CN[C@@H](Cc1ccc(C)cc1)C(=O)O; X109 = O=C([C@H](Cc1cccc(I)c1F)N[*:1])[*:2]; NMePhe(4-F) = CN[C@@H](Cc1ccc(F)cc1)C(=O)O; NMeGly(cPent) = CN[C@H](C(=O)O)C1CCCC1; Phe(2-OMe) = COc1ccccc1C[C@H](N)C(=O)O; Phe(3-I) = N[C@@H](Cc1cccc(I)c1)C(=O)O; Pro(4,4-F2) = O=C(O)[C@@H]1CC(F)(F)CN1; NMeY = CN[C@@H](Cc1ccc(O)cc1)C(=O)O; NMeCha = CN[C@@H](CC1CCCCC1)C(=O)O; NMeChg = CN[C@H](C(=O)O)C1CCCCC1; NMeI = CC[C@H](C)[C@H](NC)C(=O)O; NMeD = CN[C@@H](CC(=O)O)C(=O)O; NMeL = CN[C@@H](CC(C)C)C(=O)O; NMeNle = CCCC[C@H](NC)C(=O)O; NMeNva = CCC[C@H](NC)C(=O)O; NMeV = CN[C@H](C(=O)O)C(C)C; d(β3hA) = C[C@@H](N)CC(=O)O; NMeAbu = CC[C@H](NC)C(=O)O; NMeS = CN[C@@H](CO)C(=O)O; Morpholide = C1CN(*)CCO1; NMeA = CN[C@@H](C)C(=O)O; NMeAib = CNC(C)(C)C(=O)O; Nle = CCCC[C@H](N)C(=O)O; Piperidide = C1CCN(*)CC1; Pra = C#CC[C@H](N)C(=O)O; Pyrrolidide = C1CCN(*)C1; Ac5c = NC1(C(=O)O)CCCC1; Aze = O=C(O)[C@@H]1CCN1; Sar = CNCC(=O)O; Propyl = CCC*

tested on: Human pancreatic cancer cell line AsPC-1 (G12D mutation Kras); assay: AsPC-1 cell growth inhibition (AsPC-1 CGI); assay type: cell-based; conditions: read-out: AsPC-1 cell growth inhibition, 50% growth inhibitory concentration (IC50 value); 96 hours, CellTiter-Glo, values classified in ranges
Description: Test compounds were serially dilated with dimethyl sulfoxide, and 200 nL was then dispensed to a U-bottom 96-well plate using Labcyte Echo. […] The cell suspension was dispensed to a. plate containing a test compound at 100 μL per well and incubated at 37° C. in a 5% carbon dioxide gas incubator. 96 hours later, 80 μL of CellTiter-Glo (Promega) was added to each well and fluorescence was measured.

| SMILES | IC50 [nM] |
| --- | --- |
| CCCC[C@@H]1NC(=O)[C@H](Cc2cccc(I)c2)NC(=O)CN(C)C(=O)[C@H](Cc2ccc(Cl)cc2)N(CC)C(=O)CN(C)C(=O)CN(C)C(=O)[C@H]([C@@H](C)CC)NC(=O)[C@H](CC(C)C)N(C)C(=O)C[C@@H](C(=O)N2CCCCC2)N(C)C(=O)[C@H](CC(C)C)NC(=O)C(C)(C)N(C)C1=O [Compound 423] ([NMeL]I[Sar][Sar][NEtPhe(4-Cl)][Sar][Phe(3-I)][Nle][NMeAib]L[NMeD]-Piperidide; lactam N-11) | > 500 |
| CC[C@H](C)[C@@H]1NC(=O)[C@H](CC(C)C)N(C)C(=O)C[C@@H](C(=O)N2CCCCC2)N(C)C(=O)[C@H](CC(C)C)NC(=O)C(C)(C)N(C)C(=O)[C@H](Cc2ccccc2OC)NC(=O)[C@H](Cc2cccc(I)c2)NC(=O)CN(C)C(=O)[C@H](Cc2ccc(C)cc2)N(C)C(=O)CN(C)C(=O)CN(C)C1=O [Compound 1100] ([NMeL]I[Sar][Sar][NMePhe(4-Me)][Sar][Phe(3-I)][Phe(2-OMe)][NMeAib]L[NMeD]-Piperidide; lactam N-11) | > 500 |
| CC[C@H](C)[C@@H]1NC(=O)[C@H](C)N(C)C(=O)C[C@@H](C)NC(=O)[C@H](C(C)C)N(C)C(=O)C2(CCCC2)NC(=O)[C@@H]2CCCN2C(=O)[C@H](CCc2ccc(C(F)(F)F)c(Cl)c2)NC(=O)CN(C)C(=O)[C@H](Cc2ccc(F)cc2)N(C)C(=O)[C@@H]2CCCN2C(=O)CN(C)C1=O [Compound 1732] (cyclo([Ac5c][NMeV][d(β3hA)][NMeA]I[Sar]P[NMePhe(4-F)][Sar][hPhe(3-Cl-4-CF3)]P)) | > 500 |
| C#CC[C@@H]1NC(=O)[C@H](Cc2cccc(I)c2)NC(=O)CN(C)C(=O)[C@H](Cc2ccc(OC)cc2)N(C)C(=O)[C@@H]2CCN2C(=O)CN(C)C(=O)[C@H]([C@@H](C)CC)NC(=O)[C@H](CC(C)C)N(C)C(=O)C[C@@H](C(=O)N2CCCCC2)N(C)C(=O)[C@H](CC(C)C)NC(=O)C(C)(C)N(C)C1=O [Compound 1246] ([NMeL]I[Sar][Aze][NMeY](Me)[Sar][Phe(3-I)][Pra][NMeAib]L[NMeD]-Piperidide; lactam N-11) | > 500 |
| CC[C@H](C)[C@@H]1NC(=O)[C@H](CC(C)C)N(C)C(=O)C[C@@H](C)NC(=O)[C@H](CC(C)C)N(C)C(=O)C2(CCCC2)NC(=O)[C@@H]2CCCN2C(=O)[C@H](CCc2ccc(S(F)(F)(F)(F)F)cc2)NC(=O)CN(C)C(=O)[C@H](CC2CCCCC2)N(C)C(=O)CN(C)C(=O)CN(C)C1=O [Compound 1021] (cyclo([Ac5c][NMeL][d(β3hA)][NMeL]I[Sar][Sar][NMeCha][Sar][X115]P)) | > 500 |
| CCCC[C@H]1C(=O)N(C)[C@H](C(=O)N2CCCCC2)CC(=O)N(C)[C@@H](CC(C)C)C(=O)N[C@@H]([C@@H](C)CC)C(=O)N(C)CC(=O)N(C)CC(=O)N(C)[C@@H](CC2CCCCC2)C(=O)N(C)CC(=O)N[C@@H](CCc2ccc(C(F)(F)F)c(Cl)c2)C(=O)N2CCC[C@H]2C(=O)NC2(CCCC2)C(=O)N1C [Compound 1815] ([NMeL]I[Sar][Sar][NMeCha][Sar][hPhe(3-Cl-4-CF3)]P[Ac5c][NMeNle][NMeD]-Piperidide; lactam N-11) | > 500 |
| CC[C@H](C)[C@@H]1NC(=O)[C@H](CC(C)C)N(C)C(=O)C[C@@H](C(=O)N2CCOCC2)NC(=O)[C@H]([C@@H](C)CC)N(C)C(=O)C2(CCCC2)NC(=O)[C@@H]2CCCN2C(=O)[C@H](CCc2ccc(C(F)(F)F)c(Cl)c2)NC(=O)CN(C)C(=O)[C@H](CC2CCCCC2)N(C)C(=O)CN(C)C(=O)CN(C)C1=O [Compound 1277] ([NMeL]I[Sar][Sar][NMeCha][Sar][hPhe(3-Cl-4-CF3)]P[Ac5c][NMeI]D-Morpholide; lactam N-11) | > 500 |
| CCCC[C@@H]1NC(=O)[C@H](Cc2cccc(I)c2F)NC(=O)CN(C)C(=O)[C@H](Cc2ccc(OC)cc2)N(C)C(=O)[C@@H]2CCN2C(=O)[C@H](C)N(C)C(=O)[C@H]([C@@H](C)CC)NC(=O)[C@H](CC)N(C)C(=O)C[C@@H](C(=O)N2CCCCC2)N(C)C(=O)[C@H](CC(C)C)NC(=O)C(C)(C)N(C)C1=O [Compound 1249] ([NMeAbu]I[NMeA][Aze][NMeY](Me)[Sar][X109][Nle][NMeAib]L[NMeD]-Piperidide; lactam N-11) | > 500 |
| CC[C@H](C)[C@@H]1NC(=O)[C@H](CC(C)C)N(C)C(=O)C[C@@H](C(=O)N2CCCC2)N(C)C(=O)[C@H](CC(C)C)NC(=O)C(C)(C)N(C)C(=O)[C@H](CC(C)C)NC(=O)[C@H](CCc2ccc(C(F)(F)F)c(F)c2)NC(=O)CN(C)C(=O)[C@H](CC2CCCCC2)N(C)C(=O)CN(C)C(=O)CN(C)C1=O [Compound 312] ([NMeL]I[Sar][Sar][NMeCha][Sar][hPhe(3-F,4-CF3)]L[NMeAib]L[NMeD]-Pyrrolidide; lactam N-11) | > 500 |
| CC[C@H](C)[C@@H]1NC(=O)[C@H](CC(C)C)N(C)C(=O)C[C@@H](C(=O)N2CCCCC2)N(C)C(=O)[C@H](C2CCCCC2)N(C)C(=O)[C@H](C(C)C)NC(=O)[C@@H]2CCCN2C(=O)[C@H](CCc2ccc(C(F)(F)F)c(Cl)c2)NC(=O)CN(C)C(=O)[C@H](CC2CCCCC2)N(C)C(=O)CN(C)C(=O)CN(C)C1=O [Compound 1157] ([NMeL]I[Sar][Sar][NMeCha][Sar][hPhe(3-Cl-4-CF3)]PV[NMeChg][NMeD]-Piperidide; lactam N-11) | > 500 |
| CC[C@H](C)[C@@H]1NC(=O)[C@H](CC(C)C)N(C)C(=O)C[C@@H](C(=O)N2CCCCC2)N(C)C(=O)[C@H](C(C)C)N(C)C(=O)C2(CCCC2)NC(=O)[C@@H]2CCCN2C(=O)[C@H](CCc2ccc(C(F)(F)F)c(Cl)c2)NC(=O)CN(C)C(=O)[C@H](Cc2ccccc2C#N)N(C)C(=O)CN(C)C(=O)CN(C)C1=O [Compound 935] ([NMeL]I[Sar][Sar][NMePhe(2-CN)][Sar][hPhe(3-Cl-4-CF3)]P[Ac5c][NMeV][NMeD]-Piperidide; lactam N-11) | > 500 |
| CCC[C@H]1C(=O)N[C@@H]([C@@H](C)CC)C(=O)N(C)CC(=O)N(C)CC(=O)N(C)[C@@H](CC2CCCCC2)C(=O)N(C)CC(=O)N[C@@H](CCc2cc(F)c(C(F)(F)F)c(F)c2)C(=O)N2CC(F)(F)C[C@H]2C(=O)NC2(CCCC2)C(=O)N(C)[C@@H](C2CCCCC2)C(=O)N(C)[C@H](C(=O)N2CCCC2)CC(=O)N1C [Compound 1160] ([NMeNva]I[Sar][Sar][NMeCha][Sar][hPhe(3,5-F2-4-CF3)][Pro(4,4-F2)][Ac5c][NMeChg][NMeD]-Pyrrolidide; lactam N-11) | ≤ 20 |
| CCCOC[C@H]1C(=O)N(C)CC(=O)N[C@@H](CCc2ccc(C(F)(F)F)c(F)c2)C(=O)N2CCC[C@H]2C(=O)NC2(CCCC2)C(=O)N(C)[C@@H](C2CCCC2)C(=O)N(C)[C@H](C(=O)N2CCCC2)CC(=O)N(C)[C@@H](CC(C)C)C(=O)N[C@@H]([C@@H](C)CC)C(=O)N(C)[C@@H](C)C(=O)N2CC[C@H]2C(=O)N1C [Compound 987] ([NMeL]I[NMeA][Aze][NMeS](Propyl)[Sar][hPhe(3-F,4-CF3)]P[Ac5c][NMeGly(cPent)][NMeD]-Pyrrolidide; lactam N-11) | ≤ 20 |
| CC[C@H](C)[C@@H]1NC(=O)[C@H](CC(C)C)N(C)C(=O)C[C@@H](C(=O)N2CCCCC2)N(C)C(=O)[C@H](C2CCCCC2)N(C)C(=O)C2(CCCC2)NC(=O)[C@H](CC(=O)O)N(C)C(=O)[C@H](CCc2ccc(C(F)(F)F)c(Cl)c2)NC(=O)CN(C)C(=O)[C@H](CC2CCCCC2)N(C)C(=O)CN(C)C(=O)CN(C)C1=O [Compound 688] ([NMeL]I[Sar][Sar][NMeCha][Sar][hPhe(3-Cl-4-CF3)][NMeD][Ac5c][NMeChg][NMeD]-Piperidide; lactam N-11) | > 500 |
